Test results as given in ChEMBL document CHEMBL6096667, “Design, synthesis and biological evaluation of biaryl amide derivatives as modulators of multi-drug resistance” (Eur J Med Chem, 2025).

How the values were obtained:
A2780/Taxol [1] = experiment: Inhibition of cell proliferation of human Paclitaxel-resistant A2780/T cells incubated for 48 hrs in presence of PTX by MTT assay; type: functional, cell-based
A2780/Taxol [2] = experiment: Inhibition of cell proliferation of human Paclitaxel-resistant A2780/T cells at 1 uM incubated for 48 hrs in presence of PTX by MTT assay relative to control; type: functional
A2780/Taxol [3] = experiment: Inhibition of cell proliferation of human Paclitaxel-resistant A2780/T cells at 10 uM incubated for 48 hrs in presence of PTX by MTT assay relative to control; type: functional
A2780/Taxol [4] = experiment: Inhibition of cell proliferation of human Paclitaxel-resistant A2780/T cells at 0.01 uM incubated for 48 hrs in presence of PTX by MTT assay relative to control; type: functional
A2780/Taxol [5] = experiment: Inhibition of cell proliferation of human Paclitaxel-resistant A2780/T cells at 0.1 uM incubated for 48 hrs in presence of PTX by MTT assay relative to control; type: functional
A2780/Taxol [6] = experiment: Reversal of paclitaxel resistance in human Paclitaxel-resistant A2780/T cells assessed as reversal fold by measuring ratio of paclitaxel IC50 to paclitaxel IC50 in presence of test compound at 1 uM incubated for 48 hrs by MTT assay; type: functional
[7] = Inhibition of cell proliferation of human A2780/CDDP cells by MTT assay; type: functional, cell-based
[8] = Inhibition of cell proliferation of human CDDP-resistant A549 cells by MTT assay; type: functional, cell-based
[9] = Reversal of paclitaxel resistance in human A2780/CDDP cells assessed as reversal fold by measuring ratio of paclitaxel IC50 to paclitaxel IC50 in presence of test compound by MTT assay; type: functional
[10] = Reversal of paclitaxel resistance in human CDDP-resistant A549 cells assessed as reversal fold by measuring ratio of paclitaxel IC50 to paclitaxel IC50 in presence of test compound by MTT assay; type: functional, CDDP-resistant A549 cell
A2780/Taxol [11] = experiment: Reversal of paclitaxel resistance in human Paclitaxel-resistant A2780/T cells by MTT assay; type: functional, cell-based
[12] = molecular target: ATP-dependent translocase ABCB1 (Homo sapiens, UniProt P08183); experiment: Binding affinity to CM5 sensor chip-immobilized human P-gp assessed as dissociation constant by SPR analysis
ATP-dependent translocase ABCB1, sequence (P08183 whole entry): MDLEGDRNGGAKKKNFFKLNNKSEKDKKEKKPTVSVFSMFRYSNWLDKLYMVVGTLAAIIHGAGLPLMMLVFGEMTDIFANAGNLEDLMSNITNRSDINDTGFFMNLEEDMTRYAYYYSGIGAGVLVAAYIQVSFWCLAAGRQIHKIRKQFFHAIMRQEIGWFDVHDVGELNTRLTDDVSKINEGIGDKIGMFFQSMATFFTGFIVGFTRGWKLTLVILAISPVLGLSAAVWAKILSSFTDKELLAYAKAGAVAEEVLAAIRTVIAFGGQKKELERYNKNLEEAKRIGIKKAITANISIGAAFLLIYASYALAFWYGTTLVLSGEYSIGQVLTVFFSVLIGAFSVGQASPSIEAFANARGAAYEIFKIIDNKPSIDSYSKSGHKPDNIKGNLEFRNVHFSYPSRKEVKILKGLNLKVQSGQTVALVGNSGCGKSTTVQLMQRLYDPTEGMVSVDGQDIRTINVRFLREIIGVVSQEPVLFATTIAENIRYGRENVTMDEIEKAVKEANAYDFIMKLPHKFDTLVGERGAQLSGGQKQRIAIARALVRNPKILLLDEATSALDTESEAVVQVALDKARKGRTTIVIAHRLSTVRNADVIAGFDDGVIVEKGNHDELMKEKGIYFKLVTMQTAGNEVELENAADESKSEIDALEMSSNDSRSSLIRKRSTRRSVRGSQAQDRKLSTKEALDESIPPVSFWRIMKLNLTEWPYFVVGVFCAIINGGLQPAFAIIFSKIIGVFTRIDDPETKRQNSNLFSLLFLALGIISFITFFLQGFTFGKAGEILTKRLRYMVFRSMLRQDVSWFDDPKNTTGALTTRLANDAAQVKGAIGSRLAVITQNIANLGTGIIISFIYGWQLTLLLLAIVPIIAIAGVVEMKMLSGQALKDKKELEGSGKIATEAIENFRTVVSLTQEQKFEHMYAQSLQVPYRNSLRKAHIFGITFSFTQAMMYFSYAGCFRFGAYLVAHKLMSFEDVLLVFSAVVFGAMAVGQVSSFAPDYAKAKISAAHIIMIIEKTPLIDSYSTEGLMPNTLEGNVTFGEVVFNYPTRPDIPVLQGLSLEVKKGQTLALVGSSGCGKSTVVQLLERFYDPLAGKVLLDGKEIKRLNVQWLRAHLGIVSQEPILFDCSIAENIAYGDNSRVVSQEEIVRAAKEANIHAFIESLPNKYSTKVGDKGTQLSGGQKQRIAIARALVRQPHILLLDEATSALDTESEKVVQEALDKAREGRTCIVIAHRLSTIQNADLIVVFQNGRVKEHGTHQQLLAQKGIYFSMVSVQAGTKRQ

SMILES | IC50 (A2780/Taxol [1]) [µM] | inhibition at 1 µM (A2780/Taxol [2]) [%] | inhibition at 10 µM (A2780/Taxol [3]) [%] | inhibition at 0.01 µM (A2780/Taxol [4]) [%] | inhibition at 0.1 µM (A2780/Taxol [5]) [%] | other results
O=C(Cc1cccnc1)NCc1ccc(-c2ccccc2)cn1 | > 50 | 33 | 42 | – | – | –
O=C(Nc1cccnc1)Nc1ccc(-c2ccccc2)cn1 | > 50 | 10 | 30 | – | – | –
O=S(=O)(Nc1ccc(-c2ccccc2)cn1)c1cccnc1 | 18.7 | 7 | 37 | – | – | –
Cn1cc(C(=O)NCc2ccc(-c3ccc(F)cc3)cn2)c2ccccc21 | > 50 | 25 | 63 | – | – | –
O=C(Nc1ccc(-c2ccccc2)nc1)c1cccnc1 | 13.6 | – | – | 9 | 33 | –
Cn1cc(C(=O)NCc2ccc(-c3cnc4ccccc4c3)cn2)c2ccccc21 | > 50 | 46 | 76 | – | – | Ratio IC50 (A2780/Taxol [6]): 9
Cn1cc(C(=O)NCc2ccc(-c3ccco3)cn2)c2ccccc21 | > 50 | 20 | 32 | – | – | –
Cn1c(C(=O)NCc2ccc(-c3ccccc3)cn2)cc2ccccc21 | > 50 | 11 | 37 | – | – | –
Cc1ccc(C(=O)NCc2ccc(-c3ccccc3)cn2)cn1 | > 50 | 12 | 35 | – | – | –
O=C(NCc1ccc(-c2ccccc2)cn1)c1ccc(F)c(F)c1 | 20 | 22 | 46 | – | – | –
O=C(NCc1ccc(-c2ccccc2)cn1)c1cccnc1 | 30.5 | 32 | 65 | – | – | –
CC(=O)O[C@H]1C(=O)[C@@]2(C)[C@H]([C@H](OC(=O)c3ccccc3)[C@]3(O)C[C@H](OC(=O)[C@H](O)[C@@H](NC(=O)c4ccccc4)c4ccccc4)C(C)=C1C3(C)C)[C@]1(OC(C)=O)CO[C@@H]1C[C@@H]2O [PACLITAXEL] | 14.1 | 9 | 35 | 9 | 35 | IC50 [7]: 55.2 µM; IC50 [8]: 27.2 µM
Cn1cc(C(=O)NCc2ccc(-c3ccc4c(c3)c3ccccc3n4-c3ccccc3)cn2)c2ccccc21 | > 50 | 14 | 28 | – | – | –
Cn1cc(C(=O)NCc2ccc(-c3cccc4ccccc34)cn2)c2ccccc21 | > 50 | 46 | 83 | – | – | Ratio IC50 (A2780/Taxol [6]): 138; Ratio IC50 [9]: 6; Ratio IC50 [10]: 4; EC50 (A2780/Taxol [11]): 0.126 µM
O=C(NCc1ccc(-c2ccccc2)cn1)c1ccc(C(F)(F)F)nc1 | > 50 | 9 | 31 | – | – | –
COc1ccc(-c2ccc(CNC(=O)c3cn(C)c4ccccc34)nc2)cc1F | > 50 | 40 | 71 | – | – | Ratio IC50 (A2780/Taxol [6]): 78
O=C(Nc1ccc(-c2ccccc2)cc1)c1cccnc1 | 12.6 | – | – | 29 | 37 | –
O=C(NCc1ccc(-c2ccccc2)cn1)c1c(F)c(F)c(F)c(F)c1F | > 50 | 13 | 39 | – | – | –
O=C(Nc1ccc(-c2ccccc2)cc1[N+](=O)[O-])c1cccnc1 | 0.027 | – | – | 48 | 74 | –
O=C(/C=C/c1cccnc1)NCc1ccc(-c2ccccc2)cn1 | 22.1 | 33 | 38 | – | – | –
O=C(NCc1ccc(-c2ccccc2)cn1)c1cncnc1 | 32.7 | 24 | 61 | – | – | –
Cn1cc(C(=O)NCc2ccc(-c3ccccc3)cn2)c2ccccc21 | > 50 | 30 | 81 | – | – | Ratio IC50 (A2780/Taxol [6]): 18; Ratio IC50 [9]: 5; Ratio IC50 [10]: 3; Kd [12]: 1.66 µM
Cn1cc(C(=O)NCc2ccc(-c3cccs3)cn2)c2ccccc21 | > 50 | 6 | 80 | – | – | Ratio IC50 (A2780/Taxol [6]): 47

SMILES | IC50 (A2780/Taxol [1]) [µM] | inhibition at 1 µM (A2780/Taxol [2]) [%] | inhibition at 10 µM (A2780/Taxol [3]) [%] | inhibition at 0.01 µM (A2780/Taxol [4]) [%] | inhibition at 0.1 µM (A2780/Taxol [5]) [%] | other results
O=C(NCc1ccc(-c2ccccc2)cn1)c1ccc2cccnc2c1 | 18.3 | 31 | 67 | – | – | –
O=C(Nc1ccc(-c2ccccc2)cn1)c1cccnc1 | 0.88 | – | – | 28 | 55 | –
Cn1cc(C(=O)NCc2ccc(-c3cccc(F)c3)cn2)c2ccccc21 | > 50 | 8 | 33 | – | – | –
O=C(Nc1ncc(-c2ccccc2)cn1)c1cccnc1 | 0.11 | – | – | 34 | 49 | –
CCCCc1ccc(-c2ccc(CNC(=O)c3cn(C)c4ccccc34)nc2)cc1 | > 50 | 37 | 52 | – | – | –
N#Cc1cc(-c2ccccc2)cnc1NC(=O)c1cccnc1 | 0.08 | – | – | 35 | 59 | –
O=C(Nc1nc(-c2ccccc2)co1)c1cccnc1 | 10.1 | – | – | 11 | 30 | –
O=C(Nc1ccc(-c2ccccc2)c2nonc12)c1cccnc1 | 3.09 | – | – | 14 | 33 | –
COc1cc(C(=O)NCc2ccc(-c3ccccc3)cn2)cc(OC)c1OC | 22.9 | 10 | 51 | – | – | –
Cn1cccc1C(=O)NCc1ccc(-c2ccccc2)cn1 | > 50 | 10 | 30 | – | – | –
O=C(Nc1ncc(-c2ccccc2)cc1F)c1cccnc1 | 0.32 | – | – | 11 | 50 | –
O=C(Nc1ccc(-c2ccccc2)cc1OC(F)(F)F)c1cccnc1 | 3.54 | – | – | 31 | 42 | –
O=C(Nc1ccc(-c2ccccc2)c2cccnc12)c1cccnc1 | 33.2 | – | – | 6 | 39 | –
O=C(NCc1ccc(-c2ccccc2)cn1)c1ccc(Br)nc1 | > 50 | 12 | 37 | – | – | –
O=C(Cc1cccnc1)Nc1ccc(-c2ccccc2)cn1 | > 50 | 39 | 34 | – | – | –
Cn1cc(C(=O)NCc2ccc(-c3ccc(OCc4ccccc4)cc3)cn2)c2ccccc21 | > 50 | 41 | 78 | – | – | Ratio IC50 (A2780/Taxol [6]): 54
O=C(Nc1ccc(-c2ccccc2)c([N+](=O)[O-])c1)c1cccnc1 | 11.2 | – | – | 25 | 37 | –
COc1ccc(-c2ccc(CNC(=O)c3cn(C)c4ccccc34)nc2)c(OC)c1 | > 50 | 36 | 80 | – | – | Ratio IC50 (A2780/Taxol [6]): 38
COc1ccc(CCN(C)CCCC(C#N)(c2ccc(OC)c(OC)c2)C(C)C)cc1OC (stereo unspecified) | – | 57 | 76 | 22 | 47 | –
O=C(Nc1c(F)c(F)c(-c2ccccc2)c(F)c1F)c1cccnc1 | 0.8 | – | – | 25 | 46 | –
O=C(Nc1ccc(-c2ccccc2)c(F)c1F)c1cccnc1 | 0.78 | – | – | 27 | 46 | –
O=C(Nc1ccc(-c2ccccc2)c2ccccc12)c1cccnc1 | 19 | – | – | 31 | 35 | –
O=C(Nc1ncc(-c2ccccc2)cc1O)c1cccnc1 | 2.11 | – | – | 11 | 38 | –
